Source: ChEMBL document CHEMBL6103645, “Modular Synthesis of Bioactive Selenoheterocycles for Efficient Cancer Therapy via Electrochemical Selenylation/Cyclization” (J Med Chem, 2025)
Active and inactive are the calls of the source. No cut-off for these calls is given here.

Columns and labels:
NCI-H460 [1] = assay: Antitumor activity against human NCI-H460 cells xenografted in athymic nude mouse assessed as change in tumor volume at 10 mg/kg, iv administered every 2 days and measured after 2 weeks; type: functional, organism-based
NCI-H460 [2] = assay: Upregulation of gamma-H2AX expression in human NCI-H460 cells by Western blot analysis; type: functional, cell-based
[3] = Toxicity in male athymic nude mouse assessed as alveolar wall hyperplasia at 10 mg/kg, iv administered every 2 days and measured after 2 weeks by H and E staining based analysis; type: organism-based; settings: in vivo, 336 h
NCI-H460 [4] = assay: Induction of apoptosis in human NCI-H460 cells assessed as apoptosis rate at 500 nM incubated for 24 hrs by annexin V-FITC/PI staining based flow cytometry analysis relative to control; type: functional
NCI-H460 [5] = assay: Inhibition of epithelial mesenchymal transition in human NCI-H460 cells assessed as increase in E-cadherin protein expression by Western blotting analysis; type: functional, cell-based
NCI-H460 [6] = assay: Inhibition of epithelial mesenchymal transition in human NCI-H460 cells assessed as decrease in N-cadherin protein expression by Western blotting analysis; type: functional, cell-based
NCI-H460 [7] = assay: Antitumor activity against human NCI-H460 cells xenografted in athymic nude mouse assessed as tumor growth inhibition at 10 mg/kg, iv administered every 2 days and measured after 2 weeks; type: functional; settings: NCI-H460, 336 h, read-out: TGI
NCI-H460 [8] = assay: Antitumor activity against human NCI-H460 cells xenografted in athymic nude mouse assessed as change in tumor weight at 10 mg/kg, iv administered every 2 days and measured after 2 weeks; type: functional, organism-based
NCI-H460 [9] = assay: Anti-tumor activity against human NCI-H460 cells assessed as cell viability incubated for 48 hrs by CCK-8 assay; type: functional, cell-based; settings: NCI-H460, 48 h
NCI-H460 [10] = assay: Antitumor activity against human NCI-H460 cells xenografted in athymic nude mouse assessed as change in tumor volume at 5 mg/kg, iv administered every 2 days and measured after 2 weeks; type: functional, organism-based
[11] = Toxicity in male athymic nude mouse assessed as morphological changes in spleen at 5 to 20 mg/kg, iv administered every 2 days and measured after 2 weeks by H and E staining based analysis; type: organism-based; settings: in vivo, 336 h, dose 5-20 mg/kg
NCI-H460 [12] = assay: Antitumor activity against human NCI-H460 cells xenografted in athymic nude mouse assessed as increase in gamma-H2AX level in tumor at 5 mg/kg, iv administered every 2 days and measured after 2 weeks by immunofluorescence assay; type: functional, organism-based
NCI-H460 [13] = assay: Anti-migratory activity against human NCI-H460 cells assessed as inhibition of cell migration at 500 nM measured for 48 hrs by wound healing assay; type: functional, cell-based
NCI-H460 [14] = assay: Antitumor activity against human NCI-H460 cells xenografted in athymic nude mouse assessed as change in tumor weight at 5 mg/kg, iv administered every 2 days and measured after 2 weeks; type: functional, organism-based
NCI-H460 [15] = assay: Inhibition of colony formation in human NCI-H460 cells assessed as reduction in colony formation rate upto 12.5 uM incubated for 14 days by crystal violet staining based analysis; type: functional, cell-based; settings: time 14.0 day
NCI-H460 [16] = assay: Antitumor activity against human NCI-H460 cells xenografted in athymic nude mouse assessed as change in tumor weight at 10 to 20 mg/kg, iv administered every 2 days and measured after 2 weeks; type: functional, organism-based; settings: dose 10-20 mg/kg
[17] = Hemolytic activity in BALB/c mouse Red blood cells assessed as hemolysis at 10 to 100 uM incubated for 2 hrs; type: toxicity, cell-based, Erythrocyte; settings: dose 10-100 µM, read-out: Activity
NCI-H460 [18] = assay: Antitumor activity against human NCI-H460 cells xenografted in iv dosed athymic nude mouse assessed as tumor growth inhibition administered every 2 days and measured after 2 weeks; type: functional, organism-based; settings: dose 5-20 mg/kg
NCI-H460 [19] = assay: Anti-tumor activity against DDX10 knockdown human NCI-H460 cells assessed as inhibition of cell viability; type: functional, cell-based
[20] = Toxicity in male athymic nude mouse assessed as morphological changes in lung at 5 to 20 mg/kg, iv administered every 2 days and measured after 2 weeks by H and E staining based analysis; type: organism-based; settings: in vivo, 336 h, dose 5-20 mg/kg
[21] = Toxicity in male athymic nude mouse assessed as change in body weight at 5 to 20 mg/kg, iv administered every 2 days and measured after 2 weeks; type: organism-based; settings: in vivo, 336 h, dose 5-20 mg/kg
HT-29 = assay: Anti-tumor activity against human HT-29 cells assessed as cell viability incubated for 48 hrs by CCK-8 assay; type: functional, cell-based
[22] = Toxicity in male athymic nude mouse assessed as liver metastasis at 5 to 20 mg/kg, iv administered every 2 days and measured after 2 weeks by H and E staining based analysis; type: organism-based; settings: in vivo, 336 h, dose 5-20 mg/kg
NCI-H460 [23] = assay: Antitumor activity against human NCI-H460 cells xenografted in athymic nude mouse assessed as increase in gamma-H2AX level in tumor at 20 mg/kg, iv administered every 2 days and measured after 2 weeks by immunofluorescence assay; type: functional, organism-based
NCI-H460 [24] = assay: Induction of apoptosis in human NCI-H460 cells assessed as increase in caspase-3 level at 500 nM incubated for 24 hrs by Western blot analysis; type: functional, cell-based
[25] = Toxicity in male athymic nude mouse assessed as liver damage at 20 to 80 mg/kg, iv administered every 2 days and measured after 2 weeks; type: organism-based; settings: in vivo, 336 h, dose 20-80 mg/kg
NCI-H460 [26] = assay: Effect on DDX10 level in human NCI-H460 cells by TPP analysis; type: functional, cell-based
MCF7 = assay: Anti-tumor activity against human MCF7 cells assessed as cell viability incubated for 48 hrs by CCK-8 assay; type: functional, cell-based
NCI-H460 [27] = assay: Downregulation of DDX10 expression in human NCI-H460 cells; type: functional, cell-based
[28] = Toxicity in male athymic nude mouse assessed as morphological changes in kidney at 5 to 20 mg/kg, iv administered every 2 days and measured after 2 weeks by H and E staining based analysis; type: organism-based; settings: in vivo, 336 h, dose 5-20 mg/kg
[29] = Toxicity in male athymic nude mouse assessed as change in body weight at 20 to 80 mg/kg, iv administered every 2 days and measured after 2 weeks; type: organism-based; settings: in vivo, 336 h, dose 20-80 mg/kg
NCI-H460 [30] = assay: Induction of DNA damage in human NCI-H460 cells assessed as increase in gammaH2AX positive cells by DAPI staining based confocal laser scanning microscopic analysis; type: functional, cell-based
[31] = Toxicity in male athymic nude mouse assessed as lung damage at 20 to 80 mg/kg, iv administered every 2 days and measured after 2 weeks; type: organism-based; settings: in vivo, 336 h, dose 20-80 mg/kg
[32] = Hemolytic activity in BALB/c mouse Red blood cells assessed as effect on morphological structure at 10 to 100 uM incubated for 2 hrs; type: toxicity, cell-based; settings: erythrocyte, dose 10-100 µM
HeLa = assay: Anti-tumor activity against human HeLa cells assessed as cell viability incubated for 48 hrs by CCK-8 assay; type: functional, cell-based
NCI-H460 [33] = assay: Inhibition of cell invasion in human NCI-H460 cells assessed as decrease in number of invading cells at 500 nM incubated for 48 hrs by transwell assay; type: functional, cell-based
NCI-H460 [34] = assay: Antitumor activity against human NCI-H460 cells xenografted in athymic nude mouse assessed as tumor growth inhibition at 20 mg/kg, iv administered every 2 days and measured after 2 weeks; type: functional; settings: NCI-H460, 336 h, read-out: TGI
NCI-H460 [35] = assay: Induction of DNA damage in human NCI-H460 cells assessed as increase in gammaH2AX positive cells by immunofluorescence analysis; type: functional, cell-based
NCI-H460 [36] = assay: Induction of apoptosis in human NCI-H460 cells assessed as downregulation of Bcl2 expression at 500 nM incubated for 24 hrs by Western blot analysis; type: functional, cell-based
NCI-H460 [37] = assay: Induction of apoptosis in human NCI-H460 cells assessed as increase in BAX level at 500 nM incubated for 24 hrs by Western blot analysis; type: functional, cell-based
[38] = Toxicity in male athymic nude mouse assessed as heart damage at 20 to 80 mg/kg, iv administered every 2 days and measured after 2 weeks; type: organism-based; settings: in vivo, 336 h, dose 20-80 mg/kg
NCI-H460 [39] = assay: Antitumor activity against human NCI-H460 cells xenografted in athymic nude mouse assessed as increase in gamma-H2AX level in tumor at 20 mg/kg, iv administered every 2 days and measured after 2 weeks by Western blot assay; type: functional, organism-based
[40] = molecular target: Probable ATP-dependent RNA helicase DDX10 (Homo sapiens) (UniProt Q13206); assay: Binding affinity to DDX10 human NCI-H460 cells incubated for 60 mins at 37 to 67 degreeC by CETSA assay; type: cell-based
Sequence of Probable ATP-dependent RNA helicase DDX10 (Homo sapiens) (Q13206 whole entry): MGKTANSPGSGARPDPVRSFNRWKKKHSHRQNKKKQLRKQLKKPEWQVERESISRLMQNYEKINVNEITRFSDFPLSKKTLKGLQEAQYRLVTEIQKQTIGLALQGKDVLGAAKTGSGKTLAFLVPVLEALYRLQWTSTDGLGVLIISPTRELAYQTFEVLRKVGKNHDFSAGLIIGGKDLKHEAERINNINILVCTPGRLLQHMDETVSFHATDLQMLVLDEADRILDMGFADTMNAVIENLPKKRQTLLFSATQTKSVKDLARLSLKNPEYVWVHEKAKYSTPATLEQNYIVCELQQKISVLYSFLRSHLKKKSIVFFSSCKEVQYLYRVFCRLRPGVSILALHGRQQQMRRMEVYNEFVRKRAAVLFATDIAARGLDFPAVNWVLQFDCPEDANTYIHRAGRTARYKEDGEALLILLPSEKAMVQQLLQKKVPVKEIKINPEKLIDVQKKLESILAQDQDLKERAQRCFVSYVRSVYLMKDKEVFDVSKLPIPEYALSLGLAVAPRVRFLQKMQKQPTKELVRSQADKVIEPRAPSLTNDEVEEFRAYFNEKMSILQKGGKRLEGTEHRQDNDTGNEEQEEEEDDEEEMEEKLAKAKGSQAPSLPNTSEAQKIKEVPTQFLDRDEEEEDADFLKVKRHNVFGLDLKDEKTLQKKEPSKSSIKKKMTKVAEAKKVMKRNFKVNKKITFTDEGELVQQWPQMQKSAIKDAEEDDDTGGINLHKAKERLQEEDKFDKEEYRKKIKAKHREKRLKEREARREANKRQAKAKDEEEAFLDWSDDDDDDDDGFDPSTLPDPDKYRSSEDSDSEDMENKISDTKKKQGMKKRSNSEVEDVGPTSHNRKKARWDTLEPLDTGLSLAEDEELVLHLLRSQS

[41] = Toxicity in male athymic nude mouse assessed as kidney damage at 20 to 80 mg/kg, iv administered every 2 days and measured after 2 weeks; type: organism-based; settings: in vivo, 336 h, dose 20-80 mg/kg
[42] = Toxicity in male athymic nude mouse assessed as morphological changes in liver at 5 to 20 mg/kg, iv administered every 2 days and measured after 2 weeks by H and E staining based analysis; type: organism-based; settings: in vivo, 336 h, dose 5-20 mg/kg
NCI-H460 [43] = assay: Antitumor activity against human NCI-H460 cells xenografted in athymic nude mouse assessed as tumor growth inhibition at 5 mg/kg, iv administered every 2 days and measured after 2 weeks; type: functional; settings: NCI-H460, 336 h, read-out: TGI
[44] = Toxicity in male athymic nude mouse assessed as lung metastasis at 5 to 20 mg/kg, iv administered every 2 days and measured after 2 weeks by H and E staining based analysis; type: organism-based; settings: in vivo, 336 h, dose 5-20 mg/kg
[45] = Toxicity in iv dosed BALB/c mouse assessed as maximum tolerated dose administered every 2 days and measured after 2 weeks; type: organism-based; settings: in vivo
[46] = Toxicity in male athymic nude mouse assessed as spleen damage at 20 to 80 mg/kg, iv administered every 2 days and measured after 2 weeks; type: organism-based; settings: in vivo, 336 h, dose 20-80 mg/kg
[47] = Toxicity in male athymic nude mouse assessed as morphological changes in heart at 5 to 20 mg/kg, iv administered every 2 days and measured after 2 weeks by H and E staining based analysis; type: organism-based; settings: in vivo, 336 h, dose 5-20 mg/kg
[48] = Toxicity in male athymic nude mouse assessed as tumor necrosis at 5 to 20 mg/kg, iv administered every 2 days and measured after 2 weeks by H and E staining based analysis; type: organism-based; settings: in vivo, 336 h, dose 5-20 mg/kg
[49] = Antiproliferative activity against rat PA-III cells incubated for 24 hrs by MTT assay; type: functional, cell-based
PC-3M = assay: Antiproliferative activity against human PC-3M cells incubated for 24 hrs by MTT assay; type: functional, cell-based

## CC[C@@]1(O)C(=O)OCc2c1cc1n(c2=O)Cc2cc3ccccc3nc2-1 [CAMPTOTHECIN]
NCI-H460 [1]
  Activity: Active
NCI-H460 [2]
  Activity: Active
[3]
  Activity: Toxic
NCI-H460 [4]
  Activity: 39.1%
NCI-H460 [5]
  inhibition: Active
NCI-H460 [6]
  inhibition: Active
NCI-H460 [7]
  inhibition in vivo at 10 mg/kg: 66%
NCI-H460 [8]
  Activity: Active
NCI-H460 [9]
  IC50: 2460 nM

## COc1ccc([Se]c2c(-c3ccccc3)ncc3cccnc23)cc1
NCI-H460 [10]
  Activity: Active
[11]
  Activity: Non-toxic
NCI-H460 [12]
  Activity: Active
NCI-H460 [13]
  Activity: Active
NCI-H460 [14]
  Activity: Active
NCI-H460 [15]
  inhibition: Active
NCI-H460 [16]
  Activity: inactive
[17]
  hemolysis at 2 h, 100 µM: < 1%
NCI-H460 [18]
  TGI: Dose-dependent-effect
NCI-H460 [2]
  Activity: Active
NCI-H460 [19]
  Activity: Active
[20]
  Activity: Non-toxic
[21]
  Activity: Non-toxic
HT-29
  Activity: inactive
[22]
  Activity: Non-toxic
NCI-H460 [23]
  Activity: Active
NCI-H460 [24]
  Activity: Active
[25]
  Activity: Non-toxic
NCI-H460 [26]
  Activity: Active
MCF7
  Activity: inactive
NCI-H460 [4]
  Activity: 42.6%
NCI-H460 [27]
  Activity: Active
[28]
  Activity: Non-toxic
[29]
  Activity: Non-toxic
NCI-H460 [5]
  inhibition: Active
NCI-H460 [6]
  N-cadherin expression decrease (qualitative activity): Active
NCI-H460 [30]
  Activity: Active
[31]
  Activity: Non-toxic
NCI-H460 [7]
  inhibition in vivo at 10 mg/kg: 78%
[32]
  Activity: Non-toxic
HeLa
  Activity: inactive
NCI-H460 [9]
  IC50: 1590 nM
NCI-H460 [33]
  inhibition: Active
NCI-H460 [34]
  inhibition in vivo at 20 mg/kg: 88%
NCI-H460 [35]
  Activity: Active
NCI-H460 [36]
  Activity: Active
NCI-H460 [37]
  Activity: Active
[38]
  Activity: Non-toxic
NCI-H460 [39]
  Activity: Active
[40]
  Activity: Active
[41]
  Activity: Non-toxic
[42]
  Activity: Non-toxic
NCI-H460 [43]
  inhibition in vivo at 5 mg/kg: 60%
[44]
  Activity: Non-toxic
[45]
  MTD at 336 h: 160 mg/kg
[46]
  Activity: Non-toxic
[47]
  Activity: Non-toxic
[48]
  Activity: Non-toxic

## Cc1ccc(-c2cc(C(F)(F)F)nn2-c2ccc(S(N)(=O)=O)cc2)cc1 [CELECOXIB]
[49]
  IC50: > 20000 nM
PC-3M
  IC50: > 20000 nM
